Measurements as given in patent US9284315B2, “Three-ring PI3K and/or mTOR inhibitor” (XUANZHU PHARMA CO., LTD., priority 2011, dated 2016).
Values joined by “and” are separate entries in the source; they are usually repeats but may differ in a detail not shown here. Equal entries are not always repeated.

What was measured:
[1] = target: PI3Kα (Homo sapiens (Human), UniProt P42336); test: PI3K inhibitory activity, Method 1 activity test; format: biochemical; settings: PIP2 50 μM, ATP 25 μM
Method: Determination of the inhibitory activity of PI3K
(§1) 1. Preparation of test reagents
(1) 1× kinase buffer (50 mM HEPES, pH 7.5, 3 mM MgCl2, 1 mM EGTA, 100 mM NaCl, 0.03% CHAPS, 2 mM DTT);
(2) 4× kinase solution (added PI3K a kinase to 1× kinase buffer to provide 4× kinase solution with a final concentration of 1.65 nM);
(3) 2× substrate solution (added the substrates of PIP2 and ATP into 1× kinase buffer to provide 2× substrate solution with PIP2 final concentration of 50 μM and ATP final concentration of 25 μM);
(4) 4× test substance solutions (100× test substance solutions with different concentration gradients were prepared using 100% DMSO, and diluted 25-fold with 1× kinase buffer to give 4× test substance solutions with different concentration gradients);
(5) Invitrogen's activity test kit with the test solution was kept stand to room temperature.
(§2) 2. 2.5 μL of 4× test solution was added to a 384-well plate in parallel;
(§3) 3. added […] of 4× kinase solution and incubated for 10 min;
4. then added 5 μL of 2× solutions of PIP2 and ATP substrates and incubated for 1 h at room temperature;
5. finally, added 10 μL of test solution to quench the reaction, and read after 15 min;
(§4) 6. IC50 value was obtained via curve fitting. Inhibition rate (%)=(sample value−minimum)/(maximum−minimum)×100
Maximum refers to the readings of control wells without enzyme, minimum refers to the readings of DMSO control wells.
(§5) IC50 value was obtained via curve fitting using a soft of Graphpad 5.0.

[2] = target: mTOR (Homo sapiens (Human), UniProt P42345); test: mTOR inhibitory activity, Method 1 activity test; format: biochemical; settings: 4EBP1 50 nM, ATP 10.8 μM
Method: Determination of the Inhibitory Activity of mTOR
as §1
(1) 1× kinase buffer (50 mM HEPES, pH 7.5, 10 mM MgCl2, 1 mM EGTA, 3 mM MnCl, 0.01% Tween-20, 2 mM DTT);
(2) 4× kinase solution (added mTOR kinase to 1× kinase buffer to provide 4× kinase solution with a final concentration of 2.5 nM);
(3) 2× substrate solution (added the substrates of 4EBP1 and ATP into 1× kinase buffer to provide 2× substrate solution with 4EBP1 final concentration of 50 nM and ATP final concentration of 10.8 μM);
(4) 4× test substance solutions (100× test substance solutions with different concentration gradients were prepared using 100% DMSO, and diluted 25-fold with 1× kinase buffer to give 4× test substance solutions with different concentration gradients)
(5) preparation of test solution (test solution containing EDTA and 4EBP1 phosphorylated antibody was prepared using activity test kit with assay buffer, the final concentration of EDTA was 8 mM, and the final concentration of 4EBP1 phosphorylated antibody was 2 nM)
as §2, §3
4. then added 5 μL of 2× solutions of 4EBP1 and ATP substrates and incubated for 1 h at room temperature;
5. finally, added 10 μL of test solution to quench the reaction, and read after 60 min;
as §4
Minimum refers to the readings of control wells without enzyme, maximum refers to the readings of DMSO control wells.
as §5

[3] = system: U87MG; test: Cell viability assay by XTT method, U87MG; format: cell-based; settings: Homo sapiens, U-87 MG
Method: (§6) 1. Preparation of Reagents and Compounds
(§7) 2) Preparation of XTT test working solution:
(§8) 100 mg of tetrazolium salt (XTT) powder was weighed and dissolved in dark in 300 mL of phenol red-free serum-free RPMI1640 medium heated to 50° C., filtered and subpackaged, used immediately or within a week. All process should be conducted in dark.
(§9) 3) Preparation of test compounds
(§10) preparation of stock solutions of the test substances: the powder of test substances was dissolved in DMSO in a concentration of 10 mM.
(§11) preparation of gradiently diluted stock solutions of test substances: First, 10 mM of the stock solutions of test substances were diluted serially in 4-fold with DMSO to 10 concentrations. 2 μL of DMSO-diluted solution for each compound was taken and added to 998 μL of culture medium containing 10% fetal bovine serum (FBS). The highest concentration of the test substances was 20 μM, the concentration of DMSO was 0.2%, and there were 10 concentration gradients in total.
(§12) 1) Preparation of cell suspension
(§13) The culture medium was discarded from the flask, and the cells were washed twice with PBS. Added trypsinase to digest the cell and then collected by centrifugation, resuspended with a medium containing 10% FBS, counted and adjusted to an appropriate concentration (cell viability must be greater than 90%). The cell concentration was […].
(§14) 2) The cell suspension was added to 96-well plates, each well 100 μL.
(§15) 3) Incubated in a cell incubator overnight at 37° C., 5% CO2.
(§16) Added compound diluted 2-fold to the cell culture plates, three repeated in total, 100 μL well.
(§17) 5. Cell Viability Assay by XTT Method
(§18) Discarded the culture medium, added XTT test working liquid in an amount of 150 μL well, and kept in a cell incubator at 37° C., 5% CO2 for 2 h, then placed into a microplate reader and read the absorbance at 450 nm.
(§19) 1) The percentage of inhibition was calculated using the following formula: Inhibition rate (%)=(reading(solvent)−reading(compound))/reading(solvent)−reading(positive control))×100
(§20) 2) The data was entered into GraphPad Prism 5.0 and plotted to obtain the curve and IC50.

[4] = system: SKOV-3; test: Cell viability assay by XTT method, SKOV-3; format: cell-based; settings: Homo sapiens, SK-OV-3
Method: as §6, §7, §8, §9, §10, §11, §12, §13, §14, §15, §16, §17, §18, §19, §20

[5] = In vivo pharmacokinetics in rats, gavage (PO); settings: male, SD, rat, plasma, 4 mg/kg
[6] = In vivo pharmacokinetics in rats, intravenous bolus injection (IV); settings: 2 mg/kg; for AUC / half-life: male, SD, rat, plasma, iv; for Cl_obs / Vss_obs: rats, IV
[7] = system: SD rats; test: Repeated-dose toxicity test in rats; format: in vivo; settings: 14 days; for hair loss (animals affected) / lassitude (animals affected) / loose stools (animals affected): gavage once daily, 20 rats
Method: The test substances were suspended in 0.5% methylcellulose solution to prepare suspensions with a concentration of 0.5 mg/mL, 1.5 mg/mL and 3 mg/mL.
Animals: SD rats, 6-8 weeks old, SPF grade, purchased from Beijing Vital River Laboratory Animal Technology Co., Ltd., licensed […] No: SCXK (Beijing) 2006-0009.
The test substances were administrated as a suspension via gavage, and administrating volume was 10 mL/kg. 0.5% methyl cellulose solution was used in the solvent group, and the administrating volume was 10 mL/kg, administered once daily for consecutive 14 days. Animals were observed daily appearance and general behavior changes.

Chain of PI3Kα (P42336 whole entry): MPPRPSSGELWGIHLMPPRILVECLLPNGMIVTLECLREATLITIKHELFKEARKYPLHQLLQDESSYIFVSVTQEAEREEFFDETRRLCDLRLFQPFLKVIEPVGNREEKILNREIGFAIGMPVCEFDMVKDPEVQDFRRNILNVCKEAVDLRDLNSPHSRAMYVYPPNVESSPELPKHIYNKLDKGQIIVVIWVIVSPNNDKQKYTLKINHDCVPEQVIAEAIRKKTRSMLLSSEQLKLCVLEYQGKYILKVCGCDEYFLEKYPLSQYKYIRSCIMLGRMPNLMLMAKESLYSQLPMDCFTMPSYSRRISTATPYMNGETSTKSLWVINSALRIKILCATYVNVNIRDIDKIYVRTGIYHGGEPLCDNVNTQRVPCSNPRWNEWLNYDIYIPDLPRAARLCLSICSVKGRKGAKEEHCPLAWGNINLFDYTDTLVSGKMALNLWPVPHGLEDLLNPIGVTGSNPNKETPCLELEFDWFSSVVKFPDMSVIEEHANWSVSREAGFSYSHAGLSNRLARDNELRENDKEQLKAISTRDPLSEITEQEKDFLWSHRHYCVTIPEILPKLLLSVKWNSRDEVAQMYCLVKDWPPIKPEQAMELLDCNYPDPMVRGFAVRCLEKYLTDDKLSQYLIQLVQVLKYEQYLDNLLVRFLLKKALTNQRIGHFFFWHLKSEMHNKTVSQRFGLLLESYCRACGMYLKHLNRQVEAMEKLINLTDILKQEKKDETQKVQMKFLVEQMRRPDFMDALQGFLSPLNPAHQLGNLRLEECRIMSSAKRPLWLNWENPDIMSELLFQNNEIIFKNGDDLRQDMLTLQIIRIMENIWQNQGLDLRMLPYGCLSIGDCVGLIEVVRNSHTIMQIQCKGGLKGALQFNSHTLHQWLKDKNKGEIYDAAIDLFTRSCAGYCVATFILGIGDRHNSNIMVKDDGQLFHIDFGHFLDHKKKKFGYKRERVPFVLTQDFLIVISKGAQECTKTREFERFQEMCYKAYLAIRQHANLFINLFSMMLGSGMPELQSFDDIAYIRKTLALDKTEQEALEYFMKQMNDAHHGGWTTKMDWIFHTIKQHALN
Chain of PI3Kα (P27986 whole entry partner): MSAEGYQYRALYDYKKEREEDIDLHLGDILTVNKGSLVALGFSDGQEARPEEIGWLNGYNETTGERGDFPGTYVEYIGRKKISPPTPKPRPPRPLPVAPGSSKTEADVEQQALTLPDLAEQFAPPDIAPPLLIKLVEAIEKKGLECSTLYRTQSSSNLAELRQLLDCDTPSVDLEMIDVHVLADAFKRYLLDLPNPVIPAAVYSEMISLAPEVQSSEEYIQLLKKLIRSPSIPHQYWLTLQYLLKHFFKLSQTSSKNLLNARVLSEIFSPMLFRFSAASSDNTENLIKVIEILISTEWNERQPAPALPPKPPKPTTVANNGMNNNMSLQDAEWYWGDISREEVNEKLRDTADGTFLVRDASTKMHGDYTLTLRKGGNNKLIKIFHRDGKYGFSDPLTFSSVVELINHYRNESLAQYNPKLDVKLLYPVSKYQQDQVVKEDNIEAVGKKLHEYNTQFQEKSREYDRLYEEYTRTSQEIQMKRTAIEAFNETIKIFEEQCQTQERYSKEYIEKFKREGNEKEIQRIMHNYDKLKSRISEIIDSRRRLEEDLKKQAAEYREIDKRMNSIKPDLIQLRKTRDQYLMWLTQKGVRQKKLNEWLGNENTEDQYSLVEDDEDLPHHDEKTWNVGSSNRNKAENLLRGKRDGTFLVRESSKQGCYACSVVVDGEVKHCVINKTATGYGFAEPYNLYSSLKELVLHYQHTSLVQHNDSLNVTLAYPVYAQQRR

| Compound | IC50 [1] [nM] | IC50 [2] [nM] | IC50 [3] [nM] | IC50 [4] [nM] | AUC [5] [ng·h/mL] | Cmax [5] [ng/mL] | bioavailability [5] [%] | AUC [6] [ng·h/mL] | half-life [6] [h] | Cl_obs [6] [mL/min/kg] | Vss_obs [6] [L/kg] | further results |
| --- | --- | --- | --- | --- | --- | --- | --- | --- | --- | --- | --- | --- |
| CN1Cc2cnc3ccc(-c4ccc(C#N)nc4)nc3c2N(c2cccc(C(F)(F)F)c2)C1=O [Compound 6] | 33.8 | 24 |  |  |  |  |  |  |  |  |  |  |
| COc1ncc(-c2ccc3ncc4c(c3n2)N(c2cccc(C(F)(F)F)c2)C(=O)N(C)C4)cn1 [Compound 13] | 21 | 30.3 |  |  |  |  |  |  |  |  |  |  |
| CN1Cc2cnc3ccc(-c4cnc5ccccc5c4)nc3c2N(c2ccc(C(C)(C)C#N)cc2)C1=O [Compound 52] | 154 | 66.5 | 436 | 467 |  |  |  |  |  |  |  |  |
| CC(=O)Nc1ccc(-c2ccc3ncc4c(c3n2)N(c2cccc(C(F)(F)F)c2)C(=O)N(C)C4)cn1 [Compound 7, N-(5-(3-methyl-2-oxo-1-(3-(trifluoromethyl)phenyl)-1,2,3,4-tetrahydropyrimido[5,4-c][1,5]naphthyridin-9-yl)pyridin-2-yl)acetamide] | 29.3 | 38.7 | 901 | 895 | 63.4 | 34.9 | 11.6 | 275 | 0.47 | 124 | 4.45 | Tmax [5]: 0.5 h; half-life [5]: 1.7 h |
| CSc1ccc(-c2ccc3ncc4c(c3n2)N(c2cccc(C(F)(F)F)c2)C(=O)N(C)C4)cn1 [Compound 8] | 260 | 76.5 |  |  |  |  |  |  |  |  |  |  |
| COc1ccc(-c2ccc3ncc4c(c3n2)N(c2cccc(C(F)(F)F)c2)C(=O)N(C)C4)cn1 [Compound 2] | 88.4 | 54.3 |  |  |  |  |  |  |  |  |  |  |
| COc1ccc(-c2ccc3ncc4c(c3c2)n(-c2ccc(N3CCNCC3)c(C(F)(F)F)c2)c(=O)n4C)cn1 [BGT-226, reference compound] | 41.9 | 1.99 |  |  | 852 | 61.1 | 28 | 1520 | 4.8 | 21.7 | 8.72 | Tmax [5]: 6 h |
| CN1Cc2cnc3ccc(-c4cnc5[nH]ccc5c4)nc3c2N(c2cccc(C(F)(F)F)c2)C1=O [Compound 22, 3-methyl-9-(1H-pyrrolo[2,3-b]pyridin-5-yl)-1-(3-(trifluoromethyl)phenyl)-3,4-dihydropyrimido[5,4-c][1,5]naphthyridin-1(2H)-one] | 10.2 | 17.5 | 275 | 551 |  |  |  | 357 | 0.72 | 92.8 | 5.28 |  |
| CN1CCN(c2ccc(-c3ccc4ncc5c(c4n3)N(c3cccc(C(F)(F)F)c3)C(=O)N(C)C5)cn2)CC1 [Compound 11] | 496 | 31.2 |  |  |  |  |  |  |  |  |  |  |
| CN1Cc2cnc3ccc(-c4cnc(N)nc4)nc3c2N(c2cccc(C(F)(F)F)c2)C1=O [Compound 14, 9-(2-aminopyrimidin-5-yl)-3-methyl-1-(3-(trifluoromethyl)phenyl)-3,4-dihydropyrimido[5,4-c][1,5]naphthyridin-1(2H)-one] | 3.3 | 8.5 | 437 | 890 | 402 | 147 | 26.3 | 735 | 2.08 | 47.3 | 2.97 | Tmax [5]: 0.5 h; half-life [5]: 1.39 h |
| CN1Cc2cnc3ccc(-c4ccc(-n5cccn5)nc4)nc3c2N(c2cccc(C(F)(F)F)c2)C1=O [Compound 9] | 873 | 43.7 |  |  |  |  |  |  |  |  |  |  |
| COc1ccc(-c2ccc3ncc4c(c3n2)N(c2ccc(C(C)(C)C#N)cc2)C(=O)N(C)C4)cn1 [Compound 30, 2-(4-(9-(6-methoxypyridin-3-yl)-3-methyl-2-oxo-3,4-dihydropyrimido[5,4-c][1,5]naphthyridin-1(2H)-yl)phenyl)-2-methylpropionitrile] |  |  | 499 | 349 |  |  |  |  |  |  |  |  |
| CN1Cc2cnc3ccc(-c4cnc5ccccc5c4)nc3c2N(c2ccc(N3CCNCC3)c(C(F)(F)F)c2)C1=O [Compound 80] |  |  | 279 | 542 |  |  |  |  |  |  |  |  |
| CN1Cc2cnc3ccc(-c4ccc(N)nc4)nc3c2N(c2cccc(C(F)(F)F)c2)C1=O [Compound 3] | 10.4 | 8.86 | 84.7 | 155 | 1380 | 198 | 40.4 | 1700 | 6.48 | 19 | 5.6 | hair loss (animals affected) ([7]; high dose 30 mg/kg/day): one and 1/20; lassitude (animals affected) ([7]; high dose 30 mg/kg/day): four and 4/20; loose stools (animals affected) ([7]; high dose 30 mg/kg/day): one and 1/20; abnormal vital signs ([7]; low dose 5 mg/kg/day): no animals with abnormal vital signs; hair loss (animals affected) ([7]; low dose 5 mg/kg/day): 0/20; lassitude (animals affected) ([7]; low dose 5 mg/kg/day): 0/20; loose stools (animals affected) ([7]; low dose 5 mg/kg/day): 0/20; hair loss (animals affected) ([7]; middle dose 15 mg/kg/day): 0/20; lassitude (animals affected) ([7]; middle dose 15 mg/kg/day): 0/20; loose stools (animals affected) ([7]; middle dose 15 mg/kg/day): one and 1/20; half-life [5]: 5.33 h |
| Cn1c(=O)n(-c2ccc(C(C)(C)C#N)cc2)c2c3cc(-c4cnc5ccccc5c4)ccc3ncc21 [BEZ-235, reference compound] |  |  |  |  | 2180 | 229 | 77.4 | 1440 | 3.19 | 23 | 5.93 | hair loss (animals affected) ([7]; high dose 30 mg/kg/day): three and 3/20; lassitude (animals affected) ([7]; high dose 30 mg/kg/day): 0/20; loose stools (animals affected) ([7]; high dose 30 mg/kg/day): fifteen and 15/20; hair loss (animals affected) ([7]; low dose 5 mg/kg/day): 0/20; lassitude (animals affected) ([7]; low dose 5 mg/kg/day): 0/20; loose stools (animals affected) ([7]; low dose 5 mg/kg/day): six and 6/20; hair loss (animals affected) ([7]; middle dose 15 mg/kg/day): 0/20; lassitude (animals affected) ([7]; middle dose 15 mg/kg/day): 0/20; loose stools (animals affected) ([7]; middle dose 15 mg/kg/day): seven and 7/20; Tmax [5]: 2.83 h; half-life [5]: 4.08 h |
